The text below walks through data of ChEMBL document CHEMBL4837241, “Identification of Betulinic Acid Derivatives as Potent TGR5 Agonists with Antidiabetic Effects via Humanized TGR5H88Y Mutant Mice” (J Med Chem, 2021).

Active and inactive are the calls of the source. The rule behind the calls is not given here.

The target of one assay is T1, G-protein coupled bile acid receptor 1 (Homo sapiens, UniProt Q8TDU6).
T1 sequence (Q8TDU6 whole entry): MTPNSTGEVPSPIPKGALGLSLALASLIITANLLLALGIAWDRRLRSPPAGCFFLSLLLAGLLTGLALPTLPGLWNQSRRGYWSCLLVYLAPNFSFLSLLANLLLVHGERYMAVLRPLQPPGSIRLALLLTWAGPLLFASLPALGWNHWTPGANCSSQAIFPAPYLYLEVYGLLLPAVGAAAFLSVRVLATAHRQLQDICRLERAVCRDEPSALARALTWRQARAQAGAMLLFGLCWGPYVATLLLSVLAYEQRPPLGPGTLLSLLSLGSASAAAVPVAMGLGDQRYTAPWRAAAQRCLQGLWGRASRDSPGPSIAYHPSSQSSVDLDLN
In words: Agonist activity at N-terminal HA-tagged human TGR5 expressed in HEK293 cells assessed as […] in intracellular cAMP levels incubated for 30 mins by Lance Ultra cAMP assay. It counts as functional, cell-based.
Settings: not given
Background: Changes in cAMP serve as a functional read-out for many G protein-coupled receptors.
Regarding `CC(C)NC(=O)O[C@@H]1CC[C@]2(C)[C@H]3CC[C@@H]4[C@H]5[C@H](C(C)C)CC[C@]5(C(=O)O)CC[C@@]4(C)[C@]3(C)CC[C@H]2C1(C)C`, the EC50 (commonly the concentration that produces a half-maximal response) amounted to 124 nM.

As to `CO/N=C(/C)[C@@H]1CC[C@]2(C(=O)O)CC[C@]3(C)[C@H](CC[C@@H]4[C@@]5(C)CC[C@@H](OC(=O)NC6CC6)C(C)(C)[C@@H]5CC[C@]43C)[C@@H]12`, the EC50 turned out to be 132 nM.

In the case of `CCOC(=O)O[C@@H]1CC[C@]2(C)[C@H]3CC[C@@H]4[C@H]5[C@H](C(C)C)CC[C@]5(C(=O)O)CC[C@@]4(C)[C@]3(C)CC[C@H]2C1(C)C`, the EC50 came to 80 nM.

`C[C@@H](O)[C@@H]1CC[C@]2(C(=O)O)CC[C@]3(C)[C@H](CC[C@@H]4[C@@]5(C)CC[C@@H](OC(=O)NC6CC6)C(C)(C)[C@@H]5CC[C@]43C)[C@@H]12`: the EC50 was 38 nM.

Turning to `CC(C)[C@@H]1CC[C@]2(C(=O)O)CC[C@]3(C)[C@H](CC[C@@H]4[C@@]5(C)CC[C@@H](OC(=O)Nc6ccc(F)cc6)C(C)(C)[C@@H]5CC[C@]43C)[C@@H]12`, the EC50 is 1510 nM.

For `CC(C)[C@@H]1CC[C@]2(C(=O)O)CC[C@]3(C)[C@H](CC[C@@H]4[C@@]5(C)CC[C@@H](OC(=O)NC6CC6)C(C)(C)[C@@H]5CC[C@]43C)[C@@H]12`, the EC50 was 10.1 nM.

On to `CCCNC(=O)O[C@@H]1CC[C@]2(C)[C@H]3CC[C@@H]4[C@H]5[C@H](C(C)C)CC[C@]5(C(=O)O)CC[C@@]4(C)[C@]3(C)CC[C@H]2C1(C)C`, for which the concentration giving a half-maximal response (EC50) came to 26.9 nM.

Regarding `CC(C)[C@@H]1CC[C@]2(NC(=O)NCC(=O)O)CC[C@]3(C)[C@H](CC[C@@H]4[C@@]5(C)CC[C@@H](OC(=O)NC6CC6)C(C)(C)[C@@H]5CC[C@]43C)[C@@H]12`, the EC50 was found to be 174 nM.

For the compound `CC(C)[C@@H]1CC[C@]2(C(=O)O)CC[C@]3(C)[C@H](CC[C@@H]4[C@@]5(C)CC[C@@H](OC(=O)N6CCOCC6)C(C)(C)[C@@H]5CC[C@]43C)[C@@H]12`, the EC50 was 452 nM.

For the compound `CCN(C)C(=O)O[C@@H]1CC[C@]2(C)[C@H]3CC[C@@H]4[C@H]5[C@H](C(C)C)CC[C@]5(C(=O)O)CC[C@@]4(C)[C@]3(C)CC[C@H]2C1(C)C`, the EC50 was determined as 211 nM.

For `CC(C)[C@@H]1CC[C@]2(C(=O)O)CC[C@]3(C)[C@H](CC[C@@H]4[C@@]5(C)CC[C@@H](OC(=O)Nc6cc[nH]n6)C(C)(C)[C@@H]5CC[C@]43C)[C@@H]12`, the EC50 was found to be 175 nM.

`CCCS(=O)(=O)O[C@@H]1CC[C@]2(C)[C@H]3CC[C@@H]4[C@H]5[C@H](C(C)C)CC[C@]5(C(=O)O)CC[C@@]4(C)[C@]3(C)CC[C@H]2C1(C)C`: the EC50 was determined as 77.6 nM.

With `CC(C)[C@@H]1CC[C@]2(C(=O)OCC(=O)O)CC[C@]3(C)[C@H](CC[C@@H]4[C@@]5(C)CC[C@@H](OC(=O)NC6CC6)C(C)(C)[C@@H]5CC[C@]43C)[C@@H]12`, the EC50 came to 306 nM.

As for `CC(C)[C@@H]1CC[C@]2(C(=O)O)CC[C@]3(C)[C@H](CC[C@@H]4[C@@]5(C)CC[C@@H](OC(=O)CO)C(C)(C)[C@@H]5CC[C@]43C)[C@@H]12`, the EC50 turned out to be 27 nM.

For a further assay, the target named is T2, G-protein coupled bile acid receptor 1 (Homo sapiens) (UniProt Q8TDU6).
T2 sequence (whole entry): T1 sequence (Q8TDU6 whole entry)
Briefly: Agonist activity at N-terminal HA-tagged human TGR5 expressed in HEK293 cells assessed as […] in intracellular cAMP levels incubated for 30 mins by Lance Ultra cAMP assay relative to control. It counts as functional, cell-based. The conditions noted are these: filed as agonist.
As to `CC(C)NC(=O)O[C@@H]1CC[C@]2(C)[C@H]3CC[C@@H]4[C@H]5[C@H](C(C)C)CC[C@]5(C(=O)O)CC[C@@]4(C)[C@]3(C)CC[C@H]2C1(C)C`, the Emax – broadly, the greatest response seen or fitted, relative to the assay's reference – stood at 97%.

Take `CO/N=C(/C)[C@@H]1CC[C@]2(C(=O)O)CC[C@]3(C)[C@H](CC[C@@H]4[C@@]5(C)CC[C@@H](OC(=O)NC6CC6)C(C)(C)[C@@H]5CC[C@]43C)[C@@H]12`: the Emax was found to be 97%.

In the case of `CCOC(=O)O[C@@H]1CC[C@]2(C)[C@H]3CC[C@@H]4[C@H]5[C@H](C(C)C)CC[C@]5(C(=O)O)CC[C@@]4(C)[C@]3(C)CC[C@H]2C1(C)C`, the Emax was 92%.

On to `C[C@@H](O)[C@@H]1CC[C@]2(C(=O)O)CC[C@]3(C)[C@H](CC[C@@H]4[C@@]5(C)CC[C@@H](OC(=O)NC6CC6)C(C)(C)[C@@H]5CC[C@]43C)[C@@H]12`, for which the Emax came out at 99%.

Take `CC(C)[C@@H]1CC[C@]2(C(=O)O)CC[C@]3(C)[C@H](CC[C@@H]4[C@@]5(C)CC[C@@H](OC(=O)Nc6ccc(F)cc6)C(C)(C)[C@@H]5CC[C@]43C)[C@@H]12`: the Emax was determined as 75%.

For the compound `CC(C)[C@@H]1CC[C@]2(C(=O)O)CC[C@]3(C)[C@H](CC[C@@H]4[C@@]5(C)CC[C@@H](OC(=O)NC6CC6)C(C)(C)[C@@H]5CC[C@]43C)[C@@H]12`, the Emax was determined as 99%.

As to `CCCNC(=O)O[C@@H]1CC[C@]2(C)[C@H]3CC[C@@H]4[C@H]5[C@H](C(C)C)CC[C@]5(C(=O)O)CC[C@@]4(C)[C@]3(C)CC[C@H]2C1(C)C`, the Emax is 96%.

With `CC(C)[C@@H]1CC[C@]2(NC(=O)NCC(=O)O)CC[C@]3(C)[C@H](CC[C@@H]4[C@@]5(C)CC[C@@H](OC(=O)NC6CC6)C(C)(C)[C@@H]5CC[C@]43C)[C@@H]12`, the Emax amounted to 99%.

For `CC(C)[C@@H]1CC[C@]2(C(=O)O)CC[C@]3(C)[C@H](CC[C@@H]4[C@@]5(C)CC[C@@H](OC(=O)N6CCOCC6)C(C)(C)[C@@H]5CC[C@]43C)[C@@H]12`, the Emax was 95%.

With `CCN(C)C(=O)O[C@@H]1CC[C@]2(C)[C@H]3CC[C@@H]4[C@H]5[C@H](C(C)C)CC[C@]5(C(=O)O)CC[C@@]4(C)[C@]3(C)CC[C@H]2C1(C)C`, the Emax was found to be 92%.

Consider `CC(C)[C@@H]1CC[C@]2(C(=O)O)CC[C@]3(C)[C@H](CC[C@@H]4[C@@]5(C)CC[C@@H](OC(=O)Nc6cc[nH]n6)C(C)(C)[C@@H]5CC[C@]43C)[C@@H]12`, for which the Emax was found to be 94%.

For the compound `CCCS(=O)(=O)O[C@@H]1CC[C@]2(C)[C@H]3CC[C@@H]4[C@H]5[C@H](C(C)C)CC[C@]5(C(=O)O)CC[C@@]4(C)[C@]3(C)CC[C@H]2C1(C)C`, the Emax turned out to be 98%.

As to `CC(C)[C@@H]1CC[C@]2(C(=O)OCC(=O)O)CC[C@]3(C)[C@H](CC[C@@H]4[C@@]5(C)CC[C@@H](OC(=O)NC6CC6)C(C)(C)[C@@H]5CC[C@]43C)[C@@H]12`, the Emax came to 98%.

Take `CC(C)[C@@H]1CC[C@]2(C(=O)O)CC[C@]3(C)[C@H](CC[C@@H]4[C@@]5(C)CC[C@@H](OC(=O)CO)C(C)(C)[C@@H]5CC[C@]43C)[C@@H]12`: the Emax came to 100%.

In the next assay the target is T3, Bile acid receptor (Homo sapiens) (UniProt Q96RI1).
T3 sequence (whole entry): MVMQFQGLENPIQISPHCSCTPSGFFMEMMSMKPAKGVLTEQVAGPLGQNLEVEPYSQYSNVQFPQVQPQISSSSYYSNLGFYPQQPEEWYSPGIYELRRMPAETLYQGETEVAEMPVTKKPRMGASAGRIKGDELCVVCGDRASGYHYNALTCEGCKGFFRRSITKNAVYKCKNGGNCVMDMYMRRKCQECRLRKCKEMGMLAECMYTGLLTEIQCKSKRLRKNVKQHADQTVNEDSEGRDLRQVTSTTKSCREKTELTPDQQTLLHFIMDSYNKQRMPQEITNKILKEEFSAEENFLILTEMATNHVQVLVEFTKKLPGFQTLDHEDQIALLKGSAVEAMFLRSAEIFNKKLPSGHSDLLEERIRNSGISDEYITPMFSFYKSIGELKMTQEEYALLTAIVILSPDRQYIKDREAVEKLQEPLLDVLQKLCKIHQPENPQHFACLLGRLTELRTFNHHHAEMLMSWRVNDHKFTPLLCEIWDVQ
Briefly: Agonist activity at human FXR (247 to 467 residues) expressed in HEK293 cells at 100 uM incubated for 8 hrs by luciferase assay.
Settings: not given
It counts as cell-based.
As for `CC(C)NC(=O)O[C@@H]1CC[C@]2(C)[C@H]3CC[C@@H]4[C@H]5[C@H](C(C)C)CC[C@]5(C(=O)O)CC[C@@]4(C)[C@]3(C)CC[C@H]2C1(C)C`, the outcome was inactive.

Turning to `CO/N=C(/C)[C@@H]1CC[C@]2(C(=O)O)CC[C@]3(C)[C@H](CC[C@@H]4[C@@]5(C)CC[C@@H](OC(=O)NC6CC6)C(C)(C)[C@@H]5CC[C@]43C)[C@@H]12`, the result was inactive.

For `CCOC(=O)O[C@@H]1CC[C@]2(C)[C@H]3CC[C@@H]4[C@H]5[C@H](C(C)C)CC[C@]5(C(=O)O)CC[C@@]4(C)[C@]3(C)CC[C@H]2C1(C)C`, the result was inactive.

Regarding `C[C@@H](O)[C@@H]1CC[C@]2(C(=O)O)CC[C@]3(C)[C@H](CC[C@@H]4[C@@]5(C)CC[C@@H](OC(=O)NC6CC6)C(C)(C)[C@@H]5CC[C@]43C)[C@@H]12`, the outcome was inactive.

`CC(C)[C@@H]1CC[C@]2(C(=O)O)CC[C@]3(C)[C@H](CC[C@@H]4[C@@]5(C)CC[C@@H](OC(=O)Nc6ccc(F)cc6)C(C)(C)[C@@H]5CC[C@]43C)[C@@H]12`: the result was inactive.

With `CC(C)[C@@H]1CC[C@]2(C(=O)O)CC[C@]3(C)[C@H](CC[C@@H]4[C@@]5(C)CC[C@@H](OC(=O)NC6CC6)C(C)(C)[C@@H]5CC[C@]43C)[C@@H]12`, the outcome was inactive.

For `CCCNC(=O)O[C@@H]1CC[C@]2(C)[C@H]3CC[C@@H]4[C@H]5[C@H](C(C)C)CC[C@]5(C(=O)O)CC[C@@]4(C)[C@]3(C)CC[C@H]2C1(C)C`, the result was inactive.

Take `CC(C)[C@@H]1CC[C@]2(NC(=O)NCC(=O)O)CC[C@]3(C)[C@H](CC[C@@H]4[C@@]5(C)CC[C@@H](OC(=O)NC6CC6)C(C)(C)[C@@H]5CC[C@]43C)[C@@H]12`: the outcome was inactive.

Take `CC(C)[C@@H]1CC[C@]2(C(=O)O)CC[C@]3(C)[C@H](CC[C@@H]4[C@@]5(C)CC[C@@H](OC(=O)N6CCOCC6)C(C)(C)[C@@H]5CC[C@]43C)[C@@H]12`: the result was inactive.

For the compound `CCN(C)C(=O)O[C@@H]1CC[C@]2(C)[C@H]3CC[C@@H]4[C@H]5[C@H](C(C)C)CC[C@]5(C(=O)O)CC[C@@]4(C)[C@]3(C)CC[C@H]2C1(C)C`, the outcome was inactive.

Take `CC(C)[C@@H]1CC[C@]2(C(=O)O)CC[C@]3(C)[C@H](CC[C@@H]4[C@@]5(C)CC[C@@H](OC(=O)Nc6cc[nH]n6)C(C)(C)[C@@H]5CC[C@]43C)[C@@H]12`: the outcome was inactive.

Regarding `CCCS(=O)(=O)O[C@@H]1CC[C@]2(C)[C@H]3CC[C@@H]4[C@H]5[C@H](C(C)C)CC[C@]5(C(=O)O)CC[C@@]4(C)[C@]3(C)CC[C@H]2C1(C)C`, the result was inactive.

`CC(C)[C@@H]1CC[C@]2(C(=O)OCC(=O)O)CC[C@]3(C)[C@H](CC[C@@H]4[C@@]5(C)CC[C@@H](OC(=O)NC6CC6)C(C)(C)[C@@H]5CC[C@]43C)[C@@H]12`: the result was inactive.

With `CC(C)[C@@H]1CC[C@]2(C(=O)O)CC[C@]3(C)[C@H](CC[C@@H]4[C@@]5(C)CC[C@@H](OC(=O)CO)C(C)(C)[C@@H]5CC[C@]43C)[C@@H]12`, the outcome was inactive.
